# Test results taken from patent publication US11806339B2, “Combination therapy of Axl inhibitor and EGFR tyrosine kinase inhibitor” (Daiichi Sankyo Company, Limited, priority 2017, dated 2023).
# Where a name gives a salt, the structure may show the parent alone.
# Legend:
# [1] = Change in body weight and general symptoms in HCC827 tumor-bearing mice
# Method: (§1) 0.1 mL of the prepared cell suspension was subcutaneously transplanted to each nude mouse (female, 5 weeks old). […] The administration was started on the day (Day 1) following the grouping date and carried out five times a week (Saturday and Sunday were set to drug holidays). […] The major axis (mm) and minor axis (mm) of each tumor were measured over time using an electronic digital caliper. The estimated tumor volume was calculated according to the expression (1) given below, and plotted. Also, the body weight was measured over time using an automatic balance for small animals. The rate of change in body weight (Change in body weight (%)) was calculated according to the expression (2) given below. […] Estimated tumor volume (mm^3)=Mean estimated tumor volume of individuals per group (1) Estimated tumor volume of each individual=An×Bn^2/2
# (§2) Bn: Minor axis of the tumor at Day n Change in body weight (%)=Mean rate of change in body weights of individuals per group (2) Rate of change in body weight of each individual=(1−BWn/BWs)×100
# BWn: Body weight at Day n
# BWs: Body weight at the initial day of administration
# HCC827 cells = assay: In vivo effect of combined use of Compound A and osimertinib on subcutaneously transplanted HCC827 tumors (estimated tumor volume); parameters: species or system nude mouse;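 note: subcutaneous xenografts in female nude mice, tumor axes measured by caliper over time, volume as major axis × minor axis²/2, dosing from Day 1 five days weekly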
# Method: as §1
# An: Major axis of the tumor at Day n
# as §2
# [2] = Day 11, osimertinib 3 mg/kg, qd
# [3] = Day 14, osimertinib 3 mg/kg, qd
# [4] = Day 18, osimertinib 3 mg/kg, qd
# [5] = Day 21, osimertinib 3 mg/kg, qd
# [6] = Day 25, osimertinib 3 mg/kg, qd
# [7] = Day 28, osimertinib 3 mg/kg, qd
# [8] = Day 32, osimertinib 3 mg/kg, qd
# [9] = Day 35, osimertinib 3 mg/kg, qd
# [10] = Day 39, osimertinib 3 mg/kg, qd
# [11] = Day 46, osimertinib 3 mg/kg, qd
# [12] = Day 49, osimertinib 3 mg/kg, qd
# [13] = Day 53, osimertinib 3 mg/kg, qd
# [14] = Day 56, osimertinib 3 mg/kg, qd
# [15] = Day 60, osimertinib 3 mg/kg, qd
# [16] = Day 63, osimertinib 3 mg/kg, qd
# [17] = Day 67, osimertinib 3 mg/kg, qd
# [18] = Day 74, osimertinib 3 mg/kg, qd
# [19] = Day 77, osimertinib 3 mg/kg, qd
# [20] = Day 81, osimertinib 3 mg/kg, qd
# [21] = Day 84, osimertinib 3 mg/kg, qd
# [22] = Day 88, osimertinib 3 mg/kg, qd
# [23] = Day 91, osimertinib 3 mg/kg, qd
# [24] = Day 95, osimertinib 3 mg/kg, qd
# [25] = Day 100, osimertinib 3 mg/kg, qd
# [26] = Day 0, Compound A 12.5 mg/kg, bid
# [27] = Day 0, Compound A 25 mg/kg, bid
# [28] = Day 0, Compound A 50 mg/kg, bid
# [29] = Day 4, Compound A 12.5 mg/kg, bid
# [30] = Day 4, Compound A 25 mg/kg, bid
# [31] = Day 4, Compound A 50 mg/kg, bid
# [32] = Day 7, Compound A 12.5 mg/kg, bid
# [33] = Day 7, Compound A 25 mg/kg, bid
# [34] = Day 7, Compound A 50 mg/kg, bid
# [35] = Day 11, Compound A 12.5 mg/kg, bid
# [36] = Day 11, Compound A 25 mg/kg, bid
# [37] = Day 11, Compound A 50 mg/kg, bid
# [38] = Day 14, Compound A 12.5 mg/kg, bid
# [39] = Day 14, Compound A 25 mg/kg, bid
# [40] = Day 14, Compound A 50 mg/kg, bid
# [41] = Day 18, Compound A 12.5 mg/kg, bid
# [42] = Day 18, Compound A 25 mg/kg, bid
# [43] = Day 18, Compound A 50 mg/kg, bid
# [44] = Day 21, Compound A 12.5 mg/kg, bid
# [45] = Day 21, Compound A 25 mg/kg, bid
# [46] = Day 21, Compound A 50 mg/kg, bid
# [47] = Day 25, Compound A 12.5 mg/kg, bid
# [48] = Day 25, Compound A 25 mg/kg, bid
# [49] = Day 25, Compound A 50 mg/kg, bid
# [50] = Day 28, Compound A 25 mg/kg, bid
smiles,measurement,setting,value
"C=CC(=O)Nc1cc(Nc2nccc(-c3cn(C)c4ccccc34)n2)c(OC)cc1N(C)CCN(C)C [osimertinib, N-(2-{[2-(dimethylamino)ethyl](methyl)amino}-4-methoxy-5-{[4-(1-methyl-1H-indol-3-yl)pyrimidin-2-yl]amino}phenyl)propen-2-amide]",Mean change in body weight,"[1]; Day 0, osimertinib 3 mg/kg, qd",0.0%
same,Mean change in body weight,"[1]; Day 4, osimertinib 3 mg/kg, qd",0.1%
same,Mean change in body weight,"[1]; Day 7, osimertinib 3 mg/kg, qd",1.0%
same,Mean change in body weight,[1]; [2],0.3%
same,Mean change in body weight,[1]; [3],1.1%
same,Mean change in body weight,[1]; [4],0.9%
same,Mean change in body weight,[1]; [5],2.7%
same,Mean change in body weight,[1]; [6],2.6%
same,Mean change in body weight,[1]; [7],1.1%
same,Mean change in body weight,[1]; [8],2.0%
same,Mean change in body weight,[1]; [9],3.1%
same,Mean change in body weight,[1]; [10],4.0%
same,Mean change in body weight,"[1]; Day 42, osimertinib 3 mg/kg, qd",3.2%
same,Mean change in body weight,[1]; [11],4.5%
same,Mean change in body weight,[1]; [12],5.0%
same,Mean change in body weight,[1]; [13],5.1%
same,Mean change in body weight,[1]; [14],5.3%
same,Mean change in body weight,[1]; [15],5.4%
same,Mean change in body weight,[1]; [16],5.7%
same,Mean change in body weight,[1]; [17],6.4%
same,Mean change in body weight,"[1]; Day 70, osimertinib 3 mg/kg, qd",5.7%
same,Mean change in body weight,[1]; [18],7.4%
same,Mean change in body weight,[1]; [19],6.6%
same,Mean change in body weight,[1]; [20],8.9%
same,Mean change in body weight,[1]; [21],8.0%
same,Mean change in body weight,[1]; [22],8.8%
same,Mean change in body weight,[1]; [23],9.6%
same,Mean change in body weight,[1]; [24],11.7%
same,Mean change in body weight,"[1]; Day 98, osimertinib 3 mg/kg, qd",11.2%
same,Mean change in body weight,[1]; [25],11.9%
same,Mean estimated tumor volume,"HCC827 cells; Day 0, osimertinib 3 mg/kg, qd",259.3 mm^3
same,Mean estimated tumor volume,"HCC827 cells; Day 4, osimertinib 3 mg/kg, qd",93.1 mm^3
same,Mean estimated tumor volume,"HCC827 cells; Day 7, osimertinib 3 mg/kg, qd",56.7 mm^3
same,Mean estimated tumor volume,HCC827 cells; [2],38.7 mm^3
same,Mean estimated tumor volume,HCC827 cells; [3],33.1 mm^3
same,Mean estimated tumor volume,HCC827 cells; [4],30.9 mm^3
same,Mean estimated tumor volume,HCC827 cells; [5],29.6 mm^3
same,Mean estimated tumor volume,HCC827 cells; [6],32.0 mm^3
same,Mean estimated tumor volume,HCC827 cells; [7],32.0 mm^3
same,Mean estimated tumor volume,HCC827 cells; [8],35.5 mm^3
same,Mean estimated tumor volume,HCC827 cells; [9],42.1 mm^3
same,Mean estimated tumor volume,HCC827 cells; [10],44.9 mm^3
same,Mean estimated tumor volume,HCC827 cells; [11],53.3 mm^3
same,Mean estimated tumor volume,HCC827 cells; [12],63.7 mm^3
same,Mean estimated tumor volume,HCC827 cells; [13],80.8 mm^3
same,Mean estimated tumor volume,HCC827 cells; [14],92.4 mm^3
same,Mean estimated tumor volume,HCC827 cells; [15],103.3 mm^3
same,Mean estimated tumor volume,HCC827 cells; [16],134.1 mm^3
same,Mean estimated tumor volume,HCC827 cells; [17],146.2 mm^3
same,Mean estimated tumor volume,HCC827 cells; [18],182.1 mm^3
same,Mean estimated tumor volume,HCC827 cells; [19],220.1 mm^3
same,Mean estimated tumor volume,HCC827 cells; [20],285.7 mm^3
same,Mean estimated tumor volume,HCC827 cells; [21],341.2 mm^3
same,Mean estimated tumor volume,HCC827 cells; [22],404.1 mm^3
same,Mean estimated tumor volume,HCC827 cells; [23],509.3 mm^3
same,Mean estimated tumor volume,HCC827 cells; [24],602.4 mm^3
same,Mean estimated tumor volume,HCC827 cells; [25],727.5 mm^3
same,Day at which the tumor became bigger than its size at the start of administration (acquired resistance),"HCC827 cells; mouse, in vivo, 3 mg/kg",81 days
same,Effect on tumor immediately after administration,"HCC827 cells; osimertinib administered alone, 3 mg/kg qd",tumor regression effect
"COc1cc(-c2cnc(N)c(-c3ccc(NC(=O)c4cn(CC5CCOCC5)cc(-c5ccc(C)cn5)c4=O)cc3F)c2)ccc1OC[C@H]1COCCO1 [Compound A, N-[4-(2-amino-5-{4-[(2R)-1,4-dioxan-2-ylmethoxy]-3-methoxyphenyl}pyridin-3-yl)-3-fluorophenyl]-5-methyl-4′-oxo-1′-(tetrahydro-2H-pyran-4-ylmethyl)-1′,4′-dihydro-2,3′-bipyridine-5′-carboxamide sulfate hydrate]",Mean change in body weight,[1]; [26],0.0%
same,Mean change in body weight,[1]; [27],0.0%
same,Mean change in body weight,[1]; [28],0.0%
same,Mean change in body weight,[1]; [29],1.3%
same,Mean change in body weight,[1]; [30],0.6%
same,Mean change in body weight,[1]; [31],0.9%
same,Mean change in body weight,[1]; [32],0.7%
same,Mean change in body weight,[1]; [33],1.8%
same,Mean change in body weight,[1]; [34],1.4%
same,Mean change in body weight,[1]; [35],1.2%
same,Mean change in body weight,[1]; [36],1.0%
same,Mean change in body weight,[1]; [37],2.9%
same,Mean change in body weight,[1]; [38],0.4%
same,Mean change in body weight,[1]; [39],0.0%
same,Mean change in body weight,[1]; [40],2.4%
same,Mean change in body weight,[1]; [41],3.6%
same,Mean change in body weight,[1]; [42],0.6%
same,Mean change in body weight,[1]; [43],3.6%
same,Mean change in body weight,[1]; [44],4.8%
same,Mean change in body weight,[1]; [45],3.1%
same,Mean change in body weight,[1]; [46],6.7%
same,Mean change in body weight,[1]; [47],4.4%
same,Mean change in body weight,[1]; [48],4.6%
same,Mean change in body weight,[1]; [49],5.1%
same,Mean change in body weight,[1]; [50],3.0%
same,Mean estimated tumor volume,HCC827 cells; [26],269.0 mm^3
same,Mean estimated tumor volume,HCC827 cells; [27],273.7 mm^3
same,Mean estimated tumor volume,HCC827 cells; [28],279.7 mm^3
same,Mean estimated tumor volume,HCC827 cells; [29],376.3 mm^3
same,Mean estimated tumor volume,HCC827 cells; [30],366.6 mm^3
same,Mean estimated tumor volume,HCC827 cells; [31],386.5 mm^3
same,Mean estimated tumor volume,HCC827 cells; [32],446.8 mm^3
same,Mean estimated tumor volume,HCC827 cells; [33],458.8 mm^3
same,Mean estimated tumor volume,HCC827 cells; [34],468.3 mm^3
same,Mean estimated tumor volume,HCC827 cells; [35],580.4 mm^3
same,Mean estimated tumor volume,HCC827 cells; [36],550.8 mm^3
same,Mean estimated tumor volume,HCC827 cells; [37],579.7 mm^3
same,Mean estimated tumor volume,HCC827 cells; [38],647.2 mm^3
same,Mean estimated tumor volume,HCC827 cells; [39],631.7 mm^3
same,Mean estimated tumor volume,HCC827 cells; [40],676.8 mm^3
same,Mean estimated tumor volume,HCC827 cells; [41],759.0 mm^3
same,Mean estimated tumor volume,HCC827 cells; [42],718.2 mm^3
same,Mean estimated tumor volume,HCC827 cells; [43],816.3 mm^3
same,Mean estimated tumor volume,HCC827 cells; [44],835.6 mm^3
same,Mean estimated tumor volume,HCC827 cells; [45],792.0 mm^3
same,Mean estimated tumor volume,HCC827 cells; [46],856.2 mm^3
same,Mean estimated tumor volume,HCC827 cells; [47],1013.6 mm^3
same,Mean estimated tumor volume,HCC827 cells; [48],939.4 mm^3
same,Mean estimated tumor volume,HCC827 cells; [49],1037.5 mm^3
same,Mean estimated tumor volume,HCC827 cells; [50],1097.1 mm^3
